Laboratory results: patent US20260297060A1, “COMPOUNDS FOR THE DEGRADATION OF MUTANT BRAF” (C4 THERAPEUTICS, INC., priority 2023, published 2026)
Like-named read-outs stand apart in the source and are kept apart here.

Key:
A375-NRAS^Q61K cells = experiment: CTGlo Cell Viability Assay, A375-NRAS^Q61K (A375.11) cells, 96 hours; format: cell-based, human; conditions: A375.11 (A375-NRAS^Q61K) cells; for CTGlo A375.11 96 hours Emax / Emax: lowest % viability achieved; for Emax: Homo sapiens, 96 h
Method: Compounds of this invention were tested for their effect on the viability of A375-NRAS^Q61K cells by quantification of ATP using the CellTiter-Glo® 2.0 Cell Viability Assay (Catalog No. G9243, Promega, Madison, WI, USA). This assay produces a luminescent signal in the presence of ATP, which is indicative of metabolically active cells, making the luminescence readout proportional to the number of viable cells.
A375-NRAS^Q61K cells (harboring BRAF homozygous V600E mutation and NRAS homozygous Q61K mutation) were purchased from ATCC (Catalog No. CRL-1619IG-2, Manassas, VA, USA). A375-NRAS^Q61K cells (also referred to here as A375.11) were maintained at 37° C. in an atmosphere of 5% CO2 in Dulbecco's modified Eagle Medium (DMEM) with high glucose (Catalog No. 11965092), supplemented with 10% fetal bovine serum (FBS; Catalog No. 10437036), and 10 mM HEPES (Catalog No. 15630130), all obtained from Thermofisher Scientific (Waltham, MA, USA). Cell culture flasks and 384-well microplates were acquired from VWR (Radnor, PA, USA).
Test compounds were prepared by dissolving neat compounds in DMSO (Catalog No. D8418, Sigma-Aldrich, Inc., St. Louis, MO, USA) to generate 10 mM stock solutions, which were serially diluted (half log) in DMSO to generate an 11-point dose series (1000× final treatment concentration) in a 384-Well Low Dead Volume Microplate (Catalog No. LP-0200, Labcyte, San Jose, CA, USA). Using the Echo 550 Acoustic Liquid Handler (Labcyte), 50 nL of serially diluted compound solutions were dispensed in duplicate to 384-well TC-treated microplates (Catalog No. 3571, Corning, Glendale, CA, USA) and 50 nL of DMSO was dispensed to control wells. A375-NRAS^Q61K cells were resuspended in growth media and added to 384-well plates containing a […] of compounds in duplicate (maximum 10 μM concentration for final treatment) at a density of 250 cells/well in 50 μl. Cells were also plated to a 384-well plate with no compound treatment, to which CellTiter-Glo® reagent was added and luminescence was read right after plating to act as a baseline signal at time of plating (To). Plates treated with compound were then spun briefly, and cells were incubated with compound at 37° C. for 96 hours.
After 96 hours compound treatment, CellTiter-Glo® reagent was added to the cells at 25 μl per well and luminescence was read out on the PHERAstar plate reader (BMG Labtech, Ortenberg, Germany). Cells treated with DMSO only (no test compound treatment) were used as the negative control (N). DMSO treated cells with no CellTiter-Glo® reagent added were used as the background or positive control (P). Viability was determined by subtracting out the average background signal (P) and normalized to the average untreated signal (N) set at 100%.
Data were analyzed with a 4-parameter logistic fit to generate sigmoidal dose-response curves. The half-maximal inhibition of cell growth (GI50) is the concentration at which the fitted curve crosses 50%. The Emax, or maximum effect of each compound, represents the lowest % viability achieved following compound treatment.

BRAF V600E = biological target: T1, BRAF V600E (Homo sapiens, UniProt P15056+Q96SW2, V600E); experiment: BRAF V600E HiBiT Degradation Assay; format: cell-based; conditions: A375.10 cells, BRAF V600E
T1 construct: knock-in of the HiBiT tag to the endogenous BRAF V600E locus; host or cells: A375.10 (A375 clonal line, CRISPR HiBiT knock-in at the endogenous BRAF V600E locus)
Method: Compounds of this invention were tested for degradation of mutant BRAF V600E using the HiBiT assay, a luminescence-based assay for quantification of cellular protein levels using the Nano-Glo® HiBiT Lytic Detection System (Catalog No. N3050, Promega, Madison, WI USA). This assay utilizes the HiBiT tag on a protein of interest, which creates a luminescent signal in the presence of a complementing peptide and its substrate, the quantification of which is proportional to the amount of HiBiT-tagged protein in the cell.
The cell line A375, which is homozygous for the BRAF V600E mutation, was purchased from ATCC (Catalog No. CRL-1619, Manassas, VA, USA). A375 cells were engineered to express HiBiT tagged BRAF V600E by CRISPR knock-in of the HiBiT tag to the endogenous BRAF V600E locus, followed by selection of a clonal population containing the appropriate knock-in (referred to here as cell line A375.10). A375.10 cells were maintained at 37° C. in an atmosphere of 5% CO2 in Dulbecco's modified Eagle Medium (DMEM) with high glucose (Catalog No. 11965092), supplemented with 10% fetal bovine serum (FBS; Catalog No. 10437036), and 10 mM HEPES (Catalog No. 15630130), all obtained from Thermofisher Scientific (Waltham, MA, USA). Cell culture flasks and 384-well microplates were acquired from VWR (Radnor, PA, USA).
Test compounds were prepared by dissolving neat compounds in DMSO (Catalog No. D8418, Sigma-Aldrich, Inc., St. Louis, MO, USA) to generate 10 mM stock solutions, which were serially diluted (half log) in DMSO to generate an 11-point dose series (1000× final treatment concentration) in a 384-Well Low Dead Volume Microplate (Catalog No. LP-0200, Labcyte, San Jose, CA, USA). Using the Echo 550 Acoustic Liquid Handler (Labcyte), 30 nL of serially diluted compound solutions were dispensed in duplicate to 384-well TC-treated microplates (Catalog No. 3571, Corning, Glendale, CA, USA) and 30 nL of DMSO was dispensed to control wells. A375.10 cells resuspended in growth media without phenol red (Catalog No. 21063-029, Thermofisher Scientific) were then added to 384-well plates containing the 11-point dose series of compounds in duplicate (maximum 10 μM concentration for final treatment) at a density of 12,000 cells/well in 30 μl. Plates were then spun briefly, and cells were incubated with compound at 37° C. for 2 hours, 6 hours, or 24 hours.
Following the appropriate treatment time, Nano-Glo® HiBiT Lytic Assay reagents were added to the cells per the manufacturer's instructions by adding 30 μl of reagent per well, and the luminescence signal was acquired by plate reader. Cells treated with DMSO only (no test compound treatment) were used as the negative control (N). Media only (no cells added) with Nano-Glo reagent addition was used as the background or positive control (P). The percent response of compound treated samples were calculated by subtracting out the background signal (P) and normalizing to the DMSO control (N) as follows.
% Response=100×(Treated Signal−Average (P))/(Average (N)−Average (P)).
Data were analyzed with a 4-parameter logistic fit to generate sigmoidal dose-response curves. The DC50 is the concentration of compound at which 50% of the cellular BRAF V600E has been degraded. The Emax, or maximum effect of each compound, represents the amount of residual protein remaining in the cell following compound treatment. The IP, or inflection point of the dose-response curve, is the concentration of compound at which 50% of the observed degradation response is achieved.
The experiment was conducted at least once for each compound. If the experiment was conducted multiple times, the data shown in the table is the average of the two or more experiments.

[1] = 2 hours, inflection point, read-out: HiBiT-Degradation A375.10 BRAF 2 hours IP
[2] = 2 hours, read-out: HiBiT-Degradation A375.10 BRAF 2 hours DC50
[3] = 2 hours, residual protein remaining
[4] = 6 hours, inflection point, read-out: HiBiT-Degradation A375.10 BRAF 6 hours IP
[5] = 6 hours, read-out: HiBiT-Degradation A375.10 BRAF 6 hours DC50
[6] = HiBiT, 24 hours, read-out: HiBiT-Degradation A375.10 BRAF 24 hours DC50
[7] = HiBiT, 24 hours, read-out: HiBiT-Degradation A375.10 BRAF 24 hours IP
[8] = 6 hours, residual protein remaining, read-out: HiBiT-Degradation A375.10 BRAF 6 hours Emax
[9] = HiBiT, 24 hours, read-out: HiBiT-Degradation A375.10 BRAF 24 hours Emax
[10] = 2 hours, residual protein remaining, read-out: HiBiT-Degradation A375.10 BRAF 2 hours Emax

T1 sequence (P15056 whole entry V600E): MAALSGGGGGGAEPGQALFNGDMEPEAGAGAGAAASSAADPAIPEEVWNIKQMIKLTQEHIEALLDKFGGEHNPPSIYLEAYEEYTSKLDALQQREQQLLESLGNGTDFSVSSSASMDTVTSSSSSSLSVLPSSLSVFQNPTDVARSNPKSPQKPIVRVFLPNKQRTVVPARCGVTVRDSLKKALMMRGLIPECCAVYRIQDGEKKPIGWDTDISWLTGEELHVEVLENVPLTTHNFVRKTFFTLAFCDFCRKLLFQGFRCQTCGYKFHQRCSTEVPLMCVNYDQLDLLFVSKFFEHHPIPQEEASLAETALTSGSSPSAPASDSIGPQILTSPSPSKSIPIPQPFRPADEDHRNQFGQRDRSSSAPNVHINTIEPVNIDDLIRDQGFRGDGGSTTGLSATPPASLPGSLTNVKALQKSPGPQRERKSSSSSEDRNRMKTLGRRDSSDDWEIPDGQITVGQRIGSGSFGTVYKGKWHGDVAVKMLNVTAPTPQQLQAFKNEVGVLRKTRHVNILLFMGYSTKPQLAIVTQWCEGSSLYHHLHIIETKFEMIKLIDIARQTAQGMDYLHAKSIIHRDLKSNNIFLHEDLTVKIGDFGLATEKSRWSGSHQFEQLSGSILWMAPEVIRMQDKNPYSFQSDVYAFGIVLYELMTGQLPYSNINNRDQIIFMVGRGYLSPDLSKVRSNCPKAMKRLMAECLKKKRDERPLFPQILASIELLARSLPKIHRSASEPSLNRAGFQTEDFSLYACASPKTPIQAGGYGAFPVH
T1 sequence (Q96SW2 whole entry): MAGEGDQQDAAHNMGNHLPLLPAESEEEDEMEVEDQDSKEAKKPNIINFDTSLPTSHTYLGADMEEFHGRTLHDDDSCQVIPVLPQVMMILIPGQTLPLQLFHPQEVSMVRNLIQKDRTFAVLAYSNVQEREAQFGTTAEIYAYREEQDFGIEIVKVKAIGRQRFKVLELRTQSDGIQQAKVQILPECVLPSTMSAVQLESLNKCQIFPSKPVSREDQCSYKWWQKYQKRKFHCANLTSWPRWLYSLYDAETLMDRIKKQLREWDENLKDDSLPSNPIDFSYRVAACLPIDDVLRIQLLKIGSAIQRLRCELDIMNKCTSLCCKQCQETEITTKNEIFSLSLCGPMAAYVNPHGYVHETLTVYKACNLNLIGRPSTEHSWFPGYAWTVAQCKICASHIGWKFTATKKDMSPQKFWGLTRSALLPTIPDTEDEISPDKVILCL
T1 sequence (Q16531 whole entry partner): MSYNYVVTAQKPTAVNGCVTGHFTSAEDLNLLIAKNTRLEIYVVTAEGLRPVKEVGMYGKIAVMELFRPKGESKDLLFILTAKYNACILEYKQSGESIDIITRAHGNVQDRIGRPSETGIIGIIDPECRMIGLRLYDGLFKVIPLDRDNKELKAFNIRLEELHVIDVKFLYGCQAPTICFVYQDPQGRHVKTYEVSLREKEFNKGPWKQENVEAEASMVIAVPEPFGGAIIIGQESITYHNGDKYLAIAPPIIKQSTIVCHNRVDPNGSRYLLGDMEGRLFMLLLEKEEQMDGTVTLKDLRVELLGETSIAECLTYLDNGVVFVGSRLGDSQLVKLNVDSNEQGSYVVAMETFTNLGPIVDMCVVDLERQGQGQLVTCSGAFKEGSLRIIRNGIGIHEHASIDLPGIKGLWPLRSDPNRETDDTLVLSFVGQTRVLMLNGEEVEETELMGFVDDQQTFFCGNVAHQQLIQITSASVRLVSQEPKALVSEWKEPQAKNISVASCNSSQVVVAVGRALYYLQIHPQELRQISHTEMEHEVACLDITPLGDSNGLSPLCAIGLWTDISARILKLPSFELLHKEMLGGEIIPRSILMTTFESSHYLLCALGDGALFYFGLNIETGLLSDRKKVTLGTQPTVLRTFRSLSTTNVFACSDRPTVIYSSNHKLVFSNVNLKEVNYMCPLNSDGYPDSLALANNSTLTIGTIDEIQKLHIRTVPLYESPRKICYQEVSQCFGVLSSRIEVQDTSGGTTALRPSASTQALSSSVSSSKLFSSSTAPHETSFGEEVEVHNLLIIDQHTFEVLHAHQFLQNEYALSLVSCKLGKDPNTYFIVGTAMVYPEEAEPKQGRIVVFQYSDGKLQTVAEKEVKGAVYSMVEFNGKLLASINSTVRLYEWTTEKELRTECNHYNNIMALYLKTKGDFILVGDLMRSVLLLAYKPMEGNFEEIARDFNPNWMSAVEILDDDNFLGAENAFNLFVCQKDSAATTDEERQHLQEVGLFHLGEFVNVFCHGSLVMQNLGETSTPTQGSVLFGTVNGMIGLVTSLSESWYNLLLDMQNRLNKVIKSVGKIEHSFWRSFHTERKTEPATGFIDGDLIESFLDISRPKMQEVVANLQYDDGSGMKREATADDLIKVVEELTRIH

SMILES	GI50 (A375-NRAS^Q61K cells)	DC50 (BRAF V600E; [1])	DC50 (BRAF V600E; [2])	HiBiT-Degradation A375.10 BRAF 2 hours Emax (BRAF V600E; [3])	DC50 (BRAF V600E; [4])	DC50 (BRAF V600E; [5])	HiBiT-Degradation A375.10 BRAF 6 hours Emax (BRAF V600E; 6 hours, residual protein remaining)	HiBiT-Degradation A375.10 BRAF 24 hours Emax (BRAF V600E; HiBiT, 24 hours)	DC50 (BRAF V600E; [6])	DC50 (BRAF V600E; [7])	Emax (BRAF V600E; [8])	Emax (BRAF V600E; [9])	Emax (BRAF V600E; [10])	CTGlo A375.11 96 hours Emax (A375-NRAS^Q61K cells)	Emax (A375-NRAS^Q61K cells)
CCN(C)S(=O)(=O)Nc1ccc(F)c(Oc2ccc3ncn(C4CCC5(CC4)CCN(C4CCC(c6ccc(NC7CCC(=O)NC7=O)cc6F)CC4)CC5)c(=O)c3c2)c1C#N (single isomer, unassigned) [Compound 10, 9-[6-[2-cyano-3-[[ethyl(methyl)sulfamoyl]amino]-6-fluoro-phenoxy]-4-oxo-quinazolin-3-yl]-3-[4-[4-[(2,6-dioxo-3-piperidyl)amino]-2-fluoro-phenyl]cyclohexyl]-3-azaspiro[5.5]undecane]	1000 to 10000 nM	< 1000 nM	> 10000 nM	–	–	–	–	–	–	–	–	–	50 to 90%	*** (<=50%)	–
CCN(C)S(=O)(=O)Nc1ccc(F)c(Oc2ccc3ncn(C4CCC5(CC4)CCN(C4CCC(c6ccc(NC7CCC(=O)NC7=O)cc6F)CC4)CC5)c(=O)c3c2)c1C#N (single isomer, unassigned) [Compound 11, 9-[6-[2-cyano-3-[[ethyl(methyl)sulfamoyl]amino]-6-fluoro-phenoxy]-4-oxo-quinazolin-3-yl]-3-[4-[4-[(2,6-dioxo-3-piperidyl)amino]-2-fluoro-phenyl]cyclohexyl]-3-azaspiro[5.5]undecane]	> 10000 nM	< 1000 nM	< 1000 nM	*** (<=50%)	–	–	–	–	–	–	–	–	–	–	50 to 90%
CCN(C)S(=O)(=O)Nc1ccc(F)c(Nc2ccc3ncn([C@H]4COC5(CCN(C6CCC(c7ccc(NC8CCC(=O)NC8=O)cc7F)CC6)CC5)C4)c(=O)c3c2F)c1C#N (single isomer, unassigned) [Compound 98]	–	–	–	–	< 1000 nM	< 1000 nM	–	–	< 1000 nM	< 1000 nM	< 50%	< 50%	–	–	–

Continued, in another order:

GI50 (A375-NRAS^Q61K cells)	DC50 (BRAF V600E; [1])	DC50 (BRAF V600E; [2])	HiBiT-Degradation A375.10 BRAF 2 hours Emax (BRAF V600E; [3])	DC50 (BRAF V600E; [4])	DC50 (BRAF V600E; [5])	HiBiT-Degradation A375.10 BRAF 6 hours Emax (BRAF V600E; 6 hours, residual protein remaining)	HiBiT-Degradation A375.10 BRAF 24 hours Emax (BRAF V600E; HiBiT, 24 hours)	DC50 (BRAF V600E; [6])	DC50 (BRAF V600E; [7])	Emax (BRAF V600E; [8])	Emax (BRAF V600E; [9])	Emax (BRAF V600E; [10])	SMILES	CTGlo A375.11 96 hours Emax (A375-NRAS^Q61K cells)	Emax (A375-NRAS^Q61K cells)
< 1000 nM	< 1000 nM	< 1000 nM	*** (<=50%)	< 1000 nM	< 1000 nM	*** (<=50%)	*** (<=50%)	< 1000 nM	< 1000 nM	–	–	–	CCN(C)S(=O)(=O)Nc1ccc(F)c(Oc2ccc3ncn(C4CC5(CCN(C6CCC(c7ccc(NC8CCC(=O)NC8=O)cc7F)CC6)CC5)C4)c(=O)c3c2)c1C#N (single isomer, unassigned) [Compound 7, 6-[2-cyano-3-[[ethyl(methyl)sulfamoyl]amino]-6-fluoro-phenoxy]-3-[7-[4-[4-[(2,6-dioxo-3-piperidyl)amino]-2-fluoro-phenyl]cyclohexyl]-7-azaspiro[3.5]nonan-2-yl]-4-oxo-quinazoline]	*** (<=50%)	–
< 1000 nM	< 1000 nM	< 1000 nM	*** (<=50%)	< 1000 nM	< 1000 nM	–	–	< 1000 nM	< 1000 nM	< 50%	< 50%	–	CCN(C)S(=O)(=O)Nc1ccc(F)c(Oc2ccc3ncn(C4CC5(CCN(C6CCC(c7cc8c(cc7F)c(N7CCC(=O)NC7=O)nn8C)CC6)CC5)C4)c(=O)c3c2)c1C#N (single isomer, unassigned) [Compound 9, 6-[2-cyano-3-[[ethyl(methyl)sulfamoyl]amino]-6-fluoro-phenoxy]-3-[7-[4-[3-(2,4-dioxohexahydropyrimidin-1-yl)-5-fluoro-1-methyl-indazol-6-yl]cyclohexyl]-7-azaspiro[3.5]nonan-2-yl]-4-oxo-quinazoline]	*** (<=50%)	–
< 1000 nM	< 1000 nM	< 1000 nM	–	–	–	–	–	–	–	–	–	< 50%	CCN(C)S(=O)(=O)Nc1ccc(F)c(Oc2ccc3ncn(C4CCC5(CC4)CCN(C4CCC(c6cc7c(cc6F)c(N6CCC(=O)NC6=O)nn7C)CC4)CC5)c(=O)c3c2)c1C#N (single isomer, unassigned) [Compound 12]	–	< 50%
